Earlier results on one compound are cited in patent US10188676B2, “Anti-inflammatory solution” (Hypo-Stream Limited, priority 2013, dated 2019).

In the data set the test system is alveolar osteitis (AO). The note with it: 0.2% solution or gel, surgical site irrigation.

For the compound `[H]/N=C(\N/C(=N/[H])NCCCCCCNC(=N)NC(=N)Nc1ccc(Cl)cc1)Nc1ccc(Cl)cc1` [chlorhexidine], the “effectiveness against alveolar osteitis” value is “Neither report found evidence of effectiveness”.
